Legend:
[1] = target: T1, glycosyltransferase in crude enzyme liquid from pink carnation petals (Dianthus caryophyllus, UniProt E3W9M2); assay: Detection of glycosyl transfer reaction with carnation petal crude enzyme liquid (HPLC); assay type: biochemical; conditions: pH 5.6, 30° C.
T1 construct: Thus, a crude enzyme liquid was obtained; from tissue; host or cells: pink petals of carnation, variety Beam Cherry (ammonium sulfate precipitate, desalted)
T1 sequence (E3W9M2 31-502): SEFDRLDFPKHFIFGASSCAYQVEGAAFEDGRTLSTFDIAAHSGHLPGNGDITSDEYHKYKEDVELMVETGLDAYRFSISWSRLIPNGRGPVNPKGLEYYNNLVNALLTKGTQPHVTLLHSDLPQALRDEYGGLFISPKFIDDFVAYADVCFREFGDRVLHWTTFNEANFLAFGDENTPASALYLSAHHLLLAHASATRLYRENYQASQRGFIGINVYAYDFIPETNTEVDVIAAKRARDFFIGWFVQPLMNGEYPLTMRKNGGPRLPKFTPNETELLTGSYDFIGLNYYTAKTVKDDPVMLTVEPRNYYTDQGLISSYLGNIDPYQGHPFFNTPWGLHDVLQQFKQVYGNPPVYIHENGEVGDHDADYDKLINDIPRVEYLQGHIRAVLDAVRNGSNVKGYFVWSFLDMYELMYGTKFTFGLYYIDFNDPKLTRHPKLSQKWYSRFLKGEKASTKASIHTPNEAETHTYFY
Procedure: Pink petals of a carnation (variety: “Beam Cherry”) were ground into a powder in liquid nitrogen using a mortar and a pestle. The obtained powder was added in a stepwise manner to a 50 mM potassium phosphate buffer (pH 7.2) and dissolved therein via stirring to prevent freezing. Then, an insoluble fraction was removed by centrifugation. A saturate ammonium sulfate solution was added to the obtained supernatant so as to result in a concentration of 80%. The mixture was left on ice for 5 minutes. The precipitated protein was collected by centrifugation. A 10 mM potassium phosphate buffer was added thereto for complete dissolution. The obtained solution was applied to a Sephadex G-25 gelfiltration support (GE Healthcare) for desalting. Thus, a crude enzyme liquid was obtained. […]
Glycosyltransferase activity was examined using a crude enzyme extracted from pink petals of a carnation (variety: “Beam Cherry”) or petals of a delphinium (variety: “marine blue”) in the manner described in Example 1. […] Then, the supernatant was analyzed by HPLC. […]

[2] = target: T2, enzyme purified from pink petals of a carnation (variety: "Beam Cherry") (glycosyltransferase) (Dianthus caryophyllus, UniProt E3W9M2); assay: Relative activity of glycosyltransferase purified from carnation on each sugar donor (HPLC); assay type: biochemical; conditions: purified enzyme 135 ng, cyanidin 3-glucoside 200 μM, sugar donor 500 μM, citric acid buffer pH 5.6, 30° C., 15 minutes; HPLC area of cyanidin 3,5-O-β-diglucoside
T2 construct: the enzyme comprising 502 amino acid residues was translated, followed by amino acid removal via processing; from tissue; host or cells: petals of carnation, variety Beam Cherry
T2 sequence (E3W9M2 31-502): T1 sequence (E3W9M2 31-502)
Procedure: An enzyme reaction was carried out at 30° C. for 15 minutes using an enzyme (135 ng) purified from pink petals of a carnation (variety: “Beam Cherry”) by the method described in Example 2 ((1) and (2)), cyanidin 3-glucoside (200 μM), and a sugar donor (1-O-β-D-vanillyl glucose or any of 1-O-β-D-p-coumaryl glucose, 1-O-β-D-caffeyl glucose, 1-O-β-D-feruloyl glucose, and 1-O-β-D-sinapoyl glucose that had been enzymatically synthesized according to the method described in Matsuba Y et al., Plant Biotechnology vol. 25, No. 4 (2008) pp. 369-375) (500 μM) in a reaction solution adjusted to 30 μl with the addition of a citric acid buffer (pH 5.6). A 20% phosphoric acid aqueous solution was added to the reaction liquid so as to result in a final phosphoric acid concentration of 1%. Thus, the reaction was terminated, followed by centrifugation. The resulting supernatant was subjected to separation using a HPLC column (Chromolith SpeedROD, 4.6×50 mm, Merck), eluent A (a 1.5% phosphoric acid aqueous solution), and eluent B (a 90% methanol aqueous solution) with a linear gradient of 18% to 28% liquid B (flow rate: 3.0 ml/min, 520 nm) (5 minutes), followed by analysis. The relative activity of the enzyme on each sugar donor was determined by calculating the area of the reaction product (cyanidin 3,5-O-β-diglucoside) on an HPLC chromatogram at a wavelength of 505 nm.

O=C(OC1OC(CO)C(O)C(O)C1O)c1ccc(O)cc1 (stereo not drawn) [1-O-β-p-hydroxybenzoyl glucose]
Recognition as sugar donor by carnation glycosylation enzyme ([1]; carnation crude enzyme, cyanidin 3-O-β-glucoside 200 μM, sugar donor 1 mM, 15 minutes): recognize 1-O-β-p-hydroxybenzoyl glucose as a sugar donor

COc1cc(C(=O)OC2OC(CO)C(O)C(O)C2O)ccc1O (stereo not drawn)
Relative activity of an enzyme on a sugar donor (when synthetic 1-O-β-vanillyl glucose is set as 100) [2]: 100 | Function as sugar donor (generation of cyanidin 3,5-O-β-diglucoside from cyanidin 3-glucoside) ([1]; carnation crude enzyme liquid, 40 minutes): functions as a sugar donor

From patent US8722868B2, “Glycosyltransferase, novel glycosyltransferase gene, and novel sugar donor compound” (National University Corporation Tokyo University of …, priority 2009, dated 2014)
